Test results published in the NIST ThermoML archive (doi:10.1016/j.jct.2005.03.023).

Test: mn = molality of the nth substance listed, in mol/kg
Settings: 101.3 kPa, Liquid

O=C[C@H](O)[C@@H](O)[C@H](O)CO [D-xylose] + O
mass density [kg/m3]
Settings | m1 = 0.25 | m1 = 0.4 | m1 = 0.55 | m1 = 0.7 | m1 = 0.85 | m1 = 1
278.15 K | 1013.81 | 1021.78 | 1029.49 | 1036.97 | 1044.24 | 1051.27
288.15 K | 1012.76 | 1020.47 | 1028.02 | 1035.37 | 1042.46 | 1049.35
298.15 K | 1010.39 | 1018.06 | 1025.49 | 1032.72 | 1039.74 | 1046.52
308.15 K | 1007.15 | 1014.77 | 1022.12 | 1029.24 | 1036.18 | 1042.87
318.15 K | 1003.29 | 1010.79 | 1018.05 | 1025.13 | 1031.95 | 1038.63
